Consider seven molecules from publication PMC4140764 (PLoS Neglected Tropical Diseases, 2014).

Read-outs that look alike come from different tables or passages of the source.

Series [1] relates to RVFV strain MP12. In kind it is cell-based, Rift Valley fever virus.
In series [2] the test system is RVFV strain MP12. The experiment in a line: microbe, parasite or virus in culture. The settings on record: for EC50: Rift Valley fever virus, HeLa, 24 h. The format is cell-based, Rift Valley fever virus.
For series [3], the system named is RVFV. Nature of the series: microbe, parasite or virus in culture. The format is cell-based. To be noted: Rift Valley fever virus, SAEC, 24 h.
Series [4] deals with VEEV (1CSH3). Nature of the series: microbe, parasite or virus in culture. The format is cell-based, Venezuelan equine encephalomyelitis virus. The settings on record: for EC50: Venezuelan equine encephalitis virus, HeLa, 20 h.
The subject of series [5] is EBOV (Zaire). The experiment in a line: microbe, parasite or virus in culture. The format is cell-based, Zaire ebolavirus.
Series [6] has as its system MARV (Ci67). The experiment in a line: microbe, parasite or virus in culture. The format is cell-based, Lake Victoria marburgvirus.
In series [7] the test system is LASV (Josiah). Nature of the series: microbe, parasite or virus in culture. In kind it is cell-based, Lassa virus. To be noted: for EC50: Mammarenavirus lassaense, HeLa, 24 h.
Series [8] deals with Golgi complex in HeLa-G cells. The experiment in a line: cells. In kind it is cell-based, human. The settings on record: for EC50: Homo sapiens, 12 h, read-out: GC50 (effective concentration of compound that disrupts 50% of the Golgi complexes).
The nature of series [9]: in vitro. To be noted: human.
Series [10] can be described thus: in vitro. The settings on record: human. This is another data set of the same source.
Series [11] concerns RVFV RNA. The format is cell-based, Rift Valley fever virus.
For series [12], the system named is tubulin / microtubule organization in HeLa cells. The format is cell-based, human.
In series [13] the test system is HeLa cells expressing H3-pS10.
In series [14] the test system is HeLa cells.
The mark [15] stands for this setting: Orthomarburgvirus marburgense, HeLa, 48 h.

On to `Cl.N` [NH4Cl, reference compound], for which, in series [1], the “RVFV infection inhibition when added 2 h PI” value is recorded as “not at the later time point” and the “RVFV infection inhibition when added at early time points (−2 h or 0 h)” value was “inhibited RVFV infection”.
Turning to `Cc1ccc(NC(=O)Nc2cc(NC(=O)c3ccc(F)cc3)ccc2N2CCCC2)c(Cl)c1` [F694-1532], the EC50 in series [2] amounted to 20 µM; in series [3], 23.5 µM; in [4], 15.2 µM; in series [5] (Zaire ebolavirus, HeLa, 48 h) it was 118 µM; in [6] (setting [15]), 143 µM; in series [7], 80.4 µM. Also, the EC50 in series [8] stood at 35.3 µM. In series [8], the “%GNL (lowest % of Golgi number achievable at the compound's highest concentration)” value (shortened to “%GNL”) was found to be 19.5%. Besides, the “reduction of N and Gn expression” value in series [1] was “significantly reduced”. Moreover, in series [1], the “time of compound addition PI at which 50% of infection is rescued/recovered” value amounted to 8 h. In series [9], this molecule registered a CC50 of 51.3 µM.
On to `CC1(C(=O)NCc2ccccc2)Cn2c(cc3occc32)C(=O)N1Cc1ccc(Cl)cc1` (centres unmarked) [C795-0925], for which, in [2], the “antiviral activity against RVFV in secondary screening (heat map)” value is given as “highest activity”. Also, the EC50 in [2] stood at 14.4 µM; in [3], 12.3 µM; in [4], 10.2 µM; in [5] (Zaire ebolavirus, HeLa, 48 h), 46.6 µM; in series [6] (setting [15]), 57.4 µM; in series [7], 81.4 µM. The EC50 in series [8] is 36.9 µM. Moreover, the “antiviral activity against VEEV in secondary screening (heat map)” value in [4] is “highest activity”. In [5], the “antiviral activity against EBOV in secondary screening (heat map)” value is reported as “moderate antiviral activity”. Moreover, in series [6], the “antiviral activity against MARV in secondary screening (heat map)” value is “moderate antiviral activity”. Moreover, the “antiviral activity against LASV in secondary screening (heat map)” value in series [7] is reported as “moderate antiviral activity”. Also, in series [8], the “%GNL” value was determined as 63.4%. The “reduction of N and Gn expression” value in series [1] is given as “significantly reduced”. Also, the “time of compound addition PI at which 50% of infection is rescued/recovered” value in series [1] was 9 h. Moreover, the CC50 came to 56.7 µM in series [10] and 111 µM in series [9].
With `COc1ccc(CN2C(=O)C(=O)c3cc(C)ccc32)cc1` [D011-2120], in series [2], the “antiviral activity against RVFV in secondary screening (heat map)” value is on record as “moderate activity” and the EC50 came to 61.5 µM. In [3], the EC50 was 62.4 µM. Moreover, in series [4], the “antiviral activity against VEEV in secondary screening (heat map)” value is listed as “high activity” and the EC50 is 41.6 µM. In addition, the “antiviral activity against EBOV in secondary screening (heat map)” value in series [5] is “high activity”. The molecule also had an EC50 in series [5] (Zaire ebolavirus, HeLa, 48 h) of 54.1 µM. Further, in [6], the “antiviral activity against MARV in secondary screening (heat map)” value was “high activity”. Moreover, the EC50 in series [6] (setting [15]) turned out to be 87.1 µM. In series [7], the “antiviral activity against LASV in secondary screening (heat map)” value is “moderate activity” and the EC50 turned out to be 46.8 µM. In series [8], the “%GNL” value turned out to be 16.4% and the EC50 turned out to be 38.2 µM. Besides, in series [1], the “reduction of N and Gn expression” value is recorded as about 10%; the “reduction of S-Gn (cell surface exposed Gn) expression” value is “approximately 90%”; the “time of compound addition PI at which 50% of infection is rescued/recovered” value was over 10 h. Further, in series [11], the “viral RNA accumulation in the supernatants” value was 9% and the “viral RNA accumulation inside the cells” value is recorded as 75%. Moreover, in [12], the “tubulin ridge value relative to BFA- or mock-treated cells” value was “approximately half”. For the same molecule, the “number of cells expressing H3-pS10 (mitotic cells) vs mock-treated” value in [13] is recorded as “significant increase”. Also, the “concentration above which compound was toxic to the cells” value in series [13] (human) is over 25 µM. The same molecule returned a CC50 in [9] of 98 µM.
Regarding `NC(=O)c1ncn([C@@H]2O[C@H](CO)[C@@H](O)[C@H]2O)n1` [Ribavirin, ribavirin, reference compound], the EC50 in series [2] was found to be 27.2 µM; in series [3], 29.5 µM; in [4], 75 µM; in series [5] (Zaire ebolavirus, HeLa, 48 h) it was 60.1 µM; in [6] (setting [15]), 82.2 µM; in series [7] it was 6.8 µM. Moreover, in [8], the “%GNL” value is recorded as 87.2%.
On to `COc1ccccc1CNC(=O)C1c2c(n(C)c3ccccc23)SCC(=O)N1c1ccc(OC)c(OC)c1` (centres unmarked) [G202-0362], for which the EC50 is 13.6 µM in [2]; 11.9 µM in [3]; 48.9 µM in series [4]; 16.1 µM in series [5]; 16 µM in series [5] (Zaire ebolavirus, HeLa, 48 h); 34.1 µM in series [6]. The EC50 in series [6] (setting [15]) came to 34 µM; in series [8], 23.7 µM. Moreover, the “%GNL” value in [8] worked out at 61.2%. Moreover, the “reduction of N and Gn expression” value in [1] is reported as about 10%. Moreover, the “reduction of S-Gn (cell surface exposed Gn) expression” value in series [1] is given as “approximately 90%”. Further, the “time of compound addition PI at which 50% of infection is rescued/recovered” value in series [1] is over 10 h. For the same molecule, in series [11], the “viral RNA accumulation in the supernatants” value was found to be 28%. The “viral RNA accumulation inside the cells” value in series [11] was found to be 95%. In addition, in series [14], the “toxic effects on the HeLa cells” value is on record as “no toxic effects”. For the same molecule, the “effects on cell division in uninfected cells” value in series [13] is “no observable effects”.
For the molecule `COC(=O)Nc1nc2ccc(C(=O)c3cccs3)cc2[nH]1` [nocodazole, reference compound], in [12], the “tubulin ridge value relative to BFA- or mock-treated cells” value is listed as “approximately half”. For the same molecule, in [13], the “number of cells expressing H3-pS10 (mitotic cells) vs mock-treated” value is on record as “significant increase”.
